# Source: US4794124A, “Therapeutic composition for diabetic complications” (priority 1985, dated 1988)
# What was measured:
# [1] = system: lens sorbitol; experiment: Sorbitol content of the lens in streptozotocin-induced diabetic rats; conditions: for Sorbitol content of the lens: n = 4-5
# Experimental: Using male SD rats weighing about 100 g, experimental diabetes was induced by injecting 70 mg/kg of streptozotocin into the caudal vein.
# The rats were divided into 2 groups of 10 individuals. A first group of rats were given a 10% aqueous solution of cysteine in a volume of 0.2 ml/100 g body weight twice daily (cysteine 400 mg/kg/day) by gastric gavage beginning the day before administration of streptozotocin. This group is referred to as the cysteine-treated group. A second group received tap water similarly. This group is referred to as the control group.
# [2] = system: rat crystalline lens; experiment: Progression of cataract in streptozotocin-induced diabetic rats (slit lamp, 7 stages); format: in vivo, male SD rats; conditions: 400 mg/kg/day oral
# Experimental: (§1) A second group received tap water similarly.
# (§2) Blood glucose was determined 2 days and 11 weeks after administration of streptozotocin to confirm that the rats were in hyperglycemic condition. Further, body weight was determined periodically during the study period. After 11 weeks, the blood was withdrawn from the abdominal aorta for clinical serum chemical examination. Moreover, to monitor the cataract supervening in diabetes, the rat crystalline lens was periodically examined using a slit lamp.
# The progression of cataract was evaluated on the scale of the following 7 stages up to mature cataract.
# 0: No lens opacity at all
# I: Slight opacity of the lens epithelium or small vacuoles in the equatorial region.
# II: Vacuoles multiplying and merging to spread into the cortex.
# III: The vacuoles pervading most of the cortex have begun to disappear.
# IV: The majority of vacuoles have disappeared and the whole cortex is translucent.
# V: Opacity of the lens nucleus.
# VI: Opacity of the whole lens (mature cataract)
# Then, cataract which is a diabetic complication ready to develop in such diabetic animal models was studied by monitoring the rats for 11 weeks.
# The bar graphs in FIG. 1(a) through (f) show the time course of cataract stages. […]
# [3] = system: diabetic rats; experiment: Blood glucose in streptozotocin-induced diabetic rats; format: in vivo, male SD rats; conditions: cysteine 400 mg/kg/day oral, n = 8-10, normal 220 ± 20
# Experimental: (§3) The effects of oral administration of cysteine in diabetic rats were investigated.
# as §1, §2
# [4] = Time course of body weight in streptozotocin-induced diabetic rats; format: in vivo, male SD rats; conditions: long-term repeated administration, 400 mg/kg/day oral
# Experimental: as §3, §1, §2
# [5] = system: diabetic rats; experiment: Clinical serum chemistry values at week 11 in streptozotocin-induced diabetic rats; format: in vivo, male SD rats; conditions: 400 mg/kg/day oral
# Experimental: as §3, §1, §2
smiles,measurement,setting,value
N[C@@H](CS)C(=O)O [cysteine],"Accumulation of sorbitol in the lens, cysteine-treated vs control group",[1]; 2 and 3 weeks after streptozotocin,no significant difference
same,Sorbitol content of the lens,"[1]; after 2 weeks, control 0.996 ± 0.286",1.056 ± 0.166 μmole/lens
same,Sorbitol content of the lens,"[1]; after 3 weeks, control 1.186 ± 0.164",1.025 ± 0.031 μmole/lens
same,Progress of cataract compared with the control group,"[2]; any observation period (2, 4, 6, 8, 10, 11 weeks), FIG. 1",the progress of cataract was inhibited
same,Effect on progression of cataract (cumulative variance analysis),[2]; p<0.0001 vs control,significant retarding effect on the progression of cataract
same,Blood glucose,"[3]; after 11 weeks, control 721 ± 75",767 ± 77 mg/dL
same,Blood glucose,"[3]; after 2 days, control 521 ± 78",559 ± 99 mg/dL
same,Effect on body weight gain in diabetic rats,[4],did not affect the body weight gain
same,Serum chemical parameters (overall),[5],close to the normal values
same,Total bilirubin,"[5]; n = 8-10, normal 0.2 ± 0.0, control 0.43 ± 0.23",0.28 ± 0.18 mg/dL
same,Uric acid,"[5]; n = 8-10, normal 1.8 ± 0.4, control 2.5 ± 2.5",1.5 ± 0.5 mg/dL
same,γ-GTP,"[5]; n = 8-10, normal 2.4 ± 2.0, control 42.9 ± 31.3",13.4 ± 7.2 U/L
same,Lipid peroxide,"[5]; n = 8-10, normal 3.95 ± 0.53, control 5.40 ± 0.68",4.48 ± 0.56 nmol/dL
same,ALP,"[5]; n = 8-10, normal 48 ± 8, control 83 ± 25",68 ± 26 KAU
same,Total cholesterol,"[5]; n = 8-10, normal 51 ± 6, control 175 ± 76",118 ± 57 mg/dL
same,GPT,"[5]; n = 8-10, normal 61 ± 27, control 450 ± 320",311 ± 184 U/L
same,Neutral lipid,"[5]; n = 8-10, normal 90 ± 25, control 1437 ± 858",645 ± 605 mg/dL
same,GOT,"[5]; n = 8-10, normal 102 ± 42, control 952 ± 1038",495 ± 358 U/L
same,β-lipoprotein,"[5]; n = 8-10, normal 112 ± 13, control 493 ± 233",299 ± 173 mg/dL
same,LAP,"[5]; n = 8-10, normal 199 ± 15, control 297 ± 78",234 ± 66 GRU
same,TTT,"[5]; thymol turbidity test, n = 8-10, normal 0.15 ± 0.05, control 3.94 ± 3.88",1.03 ± 0.90 U
same,ZST,"[5]; zinc sulfate test, n = 8-10, normal 1.2 ± 0.1, control 6.2 ± 4.8",2.6 ± 1.3 U
